Experimental data taken from the NIST ThermoML archive (doi:10.1021/je100068y).

Experiment: mn = molality of the nth substance listed, in mol/kg
Conditions: 101.33 kPa, Liquid

CC(C)C[C@H](NC(=O)CN)C(=O)O [glycyl-L-leucine] + O
mass density [kg/m3]
Conditions | m1 = 0.01944 | m1 = 0.02958 | m1 = 0.0395 | m1 = 0.04928 | m1 = 0.057 | m1 = 0.07128 | m1 = 0.09125 | m1 = 0.1001
298.15 K | 997.991 | 998.487 | 998.954 | 999.428 | 999.792 | 1000.49 | 1001.44 | 1001.85
303.15 K | 996.492 | 996.981 | 997.455 | 997.926 | 998.294 | 998.981 | 999.94 | 1000.35
308.15 K | 994.971 | 995.453 | 995.927 | 996.398 | 996.773 | 997.443 | 998.415 | 998.822
313.15 K | 993.308 | 993.787 | 994.248 | 994.705 | 995.068 | 995.712 | 996.655 | 997.07

CC(C)[C@H](NC(=O)CN)C(=O)O [glycyl-L-valine] + O
mass density [kg/m3]
Conditions | m1 = 0.02257 | m1 = 0.03982 | m1 = 0.06066 | m1 = 0.07858 | m1 = 0.1017 | m1 = 0.1513 | m1 = 0.1791 | m1 = 0.2026
298.15 K | 998.221 | 999.108 | 1000.17 | 1001.09 | 1002.26 | 1004.75 | 1006.13 | 1007.28
303.15 K | 996.723 | 997.606 | 998.679 | 999.59 | 1000.76 | 1003.24 | 1004.65 | 1005.79
308.15 K | 995.192 | 996.067 | 997.129 | 998.03 | 999.181 | 1001.63 | 1003.01 | 1004.11
313.15 K | 993.535 | 994.395 | 995.435 | 996.317 | 997.462 | 999.879 | 1001.22 | 1002.29

NCC(=O)NCC(=O)O [glycylglycine] + O
mass density [kg/m3]
Conditions | m1 = 0.0294 | m1 = 0.04517 | m1 = 0.06076 | m1 = 0.07901 | m1 = 0.1051 | m1 = 0.1496 | m1 = 0.2003 | m1 = 0.257 | m1 = 0.3022
298.15 K | 998.688 | 999.547 | 1000.42 | 1001.42 | 1002.86 | 1005.27 | 1007.99 | 1011.04 | 1013.4
303.15 K | 997.189 | 998.051 | 998.909 | 999.898 | 1001.33 | 1003.76 | 1006.46 | 1009.51 | 1011.87
308.15 K | 995.661 | 996.52 | 997.375 | 998.349 | 999.766 | 1002.15 | 1004.89 | 1007.83 | 1010.28
313.15 K | 994.003 | 994.856 | 995.681 | 996.677 | 998.065 | 1000.44 | 1003.12 | 1006.06 | 1008.41

O [water] + NCC(=O)NCC(=O)O
m2 = 0
Conditions | mass density [kg/m3]
303.15 K | 995.55
313.15 K | 992.392
